Consider 21 compounds from PubChem BioAssay (NCI).

Among the test systems are 786-0 renal; COLO 205 colon; TK-10 renal; UACC-62 melanoma; NCI-H226 lung; SK-MEL-28 melanoma; HL-60(TB) leukemia; CCRF-CEM leukemia; SK-OV-3 ovarian; T-47D breast; MDA-N.
Common to all, as to assay: NCI anticancer screen, dose series, 48 h

Values joined by “and” are separate entries in the source; they are usually repeats but may differ in a detail not shown here. Equal entries are not always repeated.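 Step 1: Grow cells in 96-well plates. Step 2: Expose to compound for 48 hours at 5 concentrations. Step 3: Interpolate endpoints linearly; if unreached, use highest concentration. GI50: concentration for 50% inhibition of growth. Definition used: TGI = concentration required for complete inhibition of growth.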 Where only a bound is given, the exact number is not on record here.

Regarding `Cc1c2cccc-2ccc2c3ccccc3n(C(=O)c3ccc(Cl)cc3)c12`, the TGI in the test on 786-0 renal, in the test on COLO 205 colon, with TK-10 renal, in the test with UACC-62 melanoma, in the test on NCI-H226 lung and with SK-MEL-28 melanoma was greater than 100 µM throughout. Moreover, the TGI with HL-60(TB) leukemia, with CCRF-CEM leukemia and in the test with SK-OV-3 ovarian was greater than 100 µM each time.

For `C=C1C(C)C2C(Cc3ccccc3)NC(=O)C23OC(=O)/C=C\CC(=O)CCC(C)C/C=C/C3C1O` (stereo unspecified), the TGI with COLO 205 colon was 5.09 µM; in the test on TK-10 renal, 0.722 µM; with UACC-62 melanoma it was 11.2 µM; with NCI-H226 lung it was 10.3 µM; in the test with SK-MEL-28 melanoma, 3.92 µM; with SK-OV-3 ovarian, 19 µM. Moreover, the GI50 in the test with NCI-H226 lung is 0.635 µM; in the test with HL-60(TB) leukemia, 0.158 µM and 0.755 µM; in the test with CCRF-CEM leukemia, 0.135 µM and 0.216 µM.

For the compound `CC1(C)CC[C@]2(C(=O)O)CC[C@]3(C)[C@H](C(=O)C=C4[C@@]5(C)C=C(C#N)C(=O)C(C)(C)[C@@H]5CC[C@]43C)[C@@H]2C1`, the TGI in the test with 786-0 renal came out at 3.39 µM; with COLO 205 colon it was 1.49 µM; with TK-10 renal, 2.02 µM; in the test with UACC-62 melanoma, 4.43 µM; with NCI-H226 lung, 4.02 µM; in the test on SK-MEL-28 melanoma it was 2.35 µM. Also, the TGI was 4.34 µM in the test with T-47D breast, 11.4 µM in the test on HL-60(TB) leukemia, greater than 100 µM in the test on CCRF-CEM leukemia and 14.8 µM in the test on SK-OV-3 ovarian.

With `CCOc1cc2c(cc1O)C(O)C[C@@H]1[C@@H]2CC[C@]2(C)[C@@H](O)CC[C@@H]12` (stereo partly specified), the TGI in the test on 786-0 renal was greater than 83 µM; with COLO 205 colon, 60.8 µM; with TK-10 renal, greater than 100 µM; in the test with UACC-62 melanoma, greater than 100 µM; in the test on NCI-H226 lung it was greater than 100 µM; in the test on SK-MEL-28 melanoma it was greater than 100 µM. Moreover, the TGI in the test on CCRF-CEM leukemia was greater than 100 µM; in the test with SK-OV-3 ovarian, greater than 100 µM; in the test on MDA-N, 0.326 µM.

For `CCCCN(C)/N=N/c1nc[nH]c1C(N)=O`, the TGI in the test with COLO 205 colon, in the test with UACC-62 melanoma, in the test on NCI-H226 lung, in the test on SK-MEL-28 melanoma, in the test on HL-60(TB) leukemia and with CCRF-CEM leukemia was greater than 100 µM in each case. The compound also displayed a TGI in the test on SK-OV-3 ovarian greater than 100 µM.

In the case of `CCN(CC)C(=O)Cn1c2c(c3ccccc31)CCCC2`, the TGI in the test with 786-0 renal, in the test with COLO 205 colon, in the test with TK-10 renal, in the test with UACC-62 melanoma, with SK-MEL-28 melanoma and with HL-60(TB) leukemia was greater than 100 µM each time. In addition, the TGI in the test on CCRF-CEM leukemia, in the test on SK-OV-3 ovarian and in the test with MDA-N was greater than 100 µM each time.

`O=c1c2ccccc2nc2ccc3c(Cl)[nH][nH]c3c12`: the TGI was greater than 100 µM in the test on 786-0 renal; greater than 100 µM in the test with COLO 205 colon; greater than 100 µM with TK-10 renal; greater than 77.7 µM in the test with UACC-62 melanoma; greater than 48.4 µM with NCI-H226 lung; greater than 100 µM in the test on SK-MEL-28 melanoma. Moreover, the TGI in the test on HL-60(TB) leukemia, in the test on CCRF-CEM leukemia and in the test on SK-OV-3 ovarian was greater than 100 µM throughout.

For `COc1cc2nc(-c3cccs3)nc(Nc3cccc(Cl)c3)c2cc1OC`, the TGI is greater than 100 µM in the test on 786-0 renal; greater than 100 µM in the test with COLO 205 colon; 25.3 µM with TK-10 renal; greater than 100 µM with UACC-62 melanoma; greater than 100 µM in the test with NCI-H226 lung; greater than 100 µM in the test with SK-MEL-28 melanoma. Further, the TGI with T-47D breast, in the test on HL-60(TB) leukemia, in the test with CCRF-CEM leukemia and with SK-OV-3 ovarian was greater than 100 µM in each case.

In the case of `COc1ccc(C(=O)/C=C/c2cc(-c3cc(OC)c(OC)c(OC)c3)n[nH]2)cc1`, the GI50 in the test on COLO 205 colon was 1.73 µM; with TK-10 renal, 2.22 µM; with SK-MEL-28 melanoma it was 2.12 µM; with T-47D breast, 2.31 µM; with HL-60(TB) leukemia, 2.16 µM; with CCRF-CEM leukemia, 1.42 µM. The GI50 in the test on SK-OV-3 ovarian was 3.99 µM. Moreover, the TGI with COLO 205 colon worked out at 3.24 µM; in the test with TK-10 renal it was 5.77 µM; in the test on SK-MEL-28 melanoma, 4.42 µM; in the test on T-47D breast, 13 µM; with HL-60(TB) leukemia, 4.78 µM; with CCRF-CEM leukemia, 5.85 µM. The TGI with SK-OV-3 ovarian came to 20.5 µM.

On to `O=C1C2C=CC(n3[nH]c(=O)n(Cc4ccccc4)c3=O)CC2C(=O)N1c1ccc(Br)cc1` (stereo unspecified), for which the TGI with 786-0 renal, in the test with COLO 205 colon, in the test with TK-10 renal, in the test on UACC-62 melanoma, with NCI-H226 lung and in the test with SK-MEL-28 melanoma was greater than 100 µM in each case. Further, the TGI in the test on HL-60(TB) leukemia, in the test with CCRF-CEM leukemia and in the test on SK-OV-3 ovarian was greater than 100 µM throughout.

Turning to `O=c1[nH]nc(Cc2ccc(Cl)cc2)n1/N=C/c1ccc([N+](=O)[O-])o1`, the TGI was 11.1 µM in the test on 786-0 renal; greater than 20.1 µM with COLO 205 colon; 18.5 µM in the test on TK-10 renal; 9.09 µM with UACC-62 melanoma; 43.3 µM with NCI-H226 lung; greater than 21.9 µM in the test on SK-MEL-28 melanoma. In addition, the TGI was greater than 77.6 µM in the test on T-47D breast, greater than 26.1 µM with HL-60(TB) leukemia, greater than 37 µM in the test with CCRF-CEM leukemia and greater than 36.3 µM in the test on SK-OV-3 ovarian.

`COc1ccccc1C1C(C#N)=C(N)Oc2n[nH]c(C)c21` (stereo unspecified): the GI50 in the test with COLO 205 colon is greater than 100 µM; with TK-10 renal, greater than 100 µM; in the test with NCI-H226 lung, 74.5 µM; with SK-MEL-28 melanoma it was greater than 100 µM; in the test with T-47D breast, greater than 100 µM; in the test with HL-60(TB) leukemia, 62 µM. The GI50 is 22.8 µM in the test on CCRF-CEM leukemia and greater than 100 µM with SK-OV-3 ovarian. In addition, the TGI with COLO 205 colon, in the test with TK-10 renal, with NCI-H226 lung, in the test on SK-MEL-28 melanoma, in the test on T-47D breast and with HL-60(TB) leukemia was greater than 100 µM throughout. In addition, the TGI in the test on CCRF-CEM leukemia and in the test with SK-OV-3 ovarian was greater than 100 µM each time.

With `O=[Se](O)O`, the TGI is 7.35 µM in the test with 786-0 renal; greater than 60.3 µM with COLO 205 colon; greater than 100 µM in the test on TK-10 renal; 4.66 µM in the test on UACC-62 melanoma; 2.48 µM in the test with NCI-H226 lung; 26.8 µM with SK-MEL-28 melanoma. The TGI with T-47D breast is greater than 62.9 µM; in the test on HL-60(TB) leukemia, greater than 100 µM; in the test on CCRF-CEM leukemia, greater than 100 µM; in the test on SK-OV-3 ovarian it was 12.8 µM.

For the compound `COc1ccc(Oc2ccccc2N)cc1`, the TGI is 35.4 µM in the test with COLO 205 colon; greater than 100 µM in the test with UACC-62 melanoma; greater than 100 µM in the test on NCI-H226 lung; 95.1 µM in the test on SK-MEL-28 melanoma; greater than 100 µM in the test on HL-60(TB) leukemia; greater than 100 µM with CCRF-CEM leukemia. This compound had a TGI with SK-OV-3 ovarian greater than 100 µM.

As for `CCOC(=O)C1=C(O)c2ccc(C)cc2C(=O)C1=O`, the TGI in the test on 786-0 renal, in the test with COLO 205 colon, in the test with TK-10 renal, in the test on UACC-62 melanoma, in the test with NCI-H226 lung and in the test with SK-MEL-28 melanoma was greater than 100 µM each time. In addition, the TGI in the test with HL-60(TB) leukemia, in the test on CCRF-CEM leukemia and with SK-OV-3 ovarian was greater than 100 µM in each case.

For the compound `[N-]=[N+]=NCC(O)Cn1cnc2c(NC(=O)c3ccccc3)ncnc21` (stereo unspecified), the TGI in the test with 786-0 renal is greater than 100 µM; with COLO 205 colon, 76.9 µM; in the test with TK-10 renal, greater than 100 µM; with UACC-62 melanoma, greater than 100 µM; with NCI-H226 lung it was greater than 100 µM; in the test with SK-MEL-28 melanoma, greater than 100 µM. Besides, the TGI with HL-60(TB) leukemia and with CCRF-CEM leukemia was greater than 100 µM each time.

Take `Nc1c(S(=O)(=O)O)cc(S(=O)(=O)O)c2ccc(N=Nc3ccc(/C=C/c4ccc(N=Nc5ccc6c(S(=O)(=O)O)cc(S(=O)(=O)O)c(N)c6c5O)cc4S(=O)(=O)O)c(S(=O)(=O)O)c3)c(O)c12`: the TGI in the test on COLO 205 colon, in the test with UACC-62 melanoma, in the test on NCI-H226 lung, with SK-MEL-28 melanoma, in the test with HL-60(TB) leukemia and in the test on CCRF-CEM leukemia was greater than 100 µM in each case. Also, the TGI in the test with SK-OV-3 ovarian is greater than 100 µM.

Turning to `CC1(C)O[C@@H](C[C@]2(C#N)C[C@H](CCl)OC(C)(C)O2)C[C@@H](C#N)O1`, the TGI in the test with 786-0 renal, with COLO 205 colon, in the test on TK-10 renal, in the test on UACC-62 melanoma, in the test with NCI-H226 lung and with SK-MEL-28 melanoma was greater than 100 µM throughout. Moreover, the TGI with HL-60(TB) leukemia, in the test on CCRF-CEM leukemia and in the test with SK-OV-3 ovarian was greater than 100 µM each time.

With `N/C(=N\N=C\c1ncccc1O)NO`, the TGI was greater than 39.8 µM with COLO 205 colon; 43 µM in the test on UACC-62 melanoma; 58.1 µM in the test on NCI-H226 lung; greater than 100 µM in the test with SK-MEL-28 melanoma; greater than 26.5 µM in the test with HL-60(TB) leukemia; greater than 47.6 µM with CCRF-CEM leukemia. In addition, the TGI in the test on SK-OV-3 ovarian is greater than 84.1 µM.

Consider `CSc1cnc2ccccc2c1Sc1c[nH]c2ccccc2c1=O`, for which the TGI in the test on 786-0 renal was 34.8 µM; in the test with COLO 205 colon it was 22.7 µM; in the test on TK-10 renal, 91.4 µM; with UACC-62 melanoma it was 25.1 µM; in the test on NCI-H226 lung it was 33 µM; in the test with SK-MEL-28 melanoma, 43.5 µM. Further, the TGI in the test on HL-60(TB) leukemia is 18 µM; with CCRF-CEM leukemia it was greater than 87.3 µM; with SK-OV-3 ovarian, 14.8 µM.

Regarding `COc1ccc(C)cc(=O)c1O`, the TGI in the test on 786-0 renal, in the test on COLO 205 colon, in the test on TK-10 renal, with UACC-62 melanoma, with NCI-H226 lung and with SK-MEL-28 melanoma was greater than 100 µM each time. The values for the TGI with HL-60(TB) leukemia, with CCRF-CEM leukemia and in the test on SK-OV-3 ovarian were 61.5 µM, 72.5 µM and greater than 100 µM, respectively.
